Molecules are shown by their SMILES. In brackets after ≈: the same amount, converted by molar mass. Where only a bound is given, the exact number is not on record here.

Test [1] has as its system S. Enteritidis. The experiment in a line: Antimicrobial effect of seaweed pure compounds, broth inoculation method (log CFU/mL). The settings on record: 15 μg/mL of compound, no antibiotic; for colony count of S. Enteritidis, log CFU: control log CFU 6.5. The test is classed as cell-based, Salmonella Enteritidis. The procedure: These pure compounds were tested in vitro against S. Enteritidis using the broth inoculation method of Example 2, but without the tetracycline or streptomycin. Fifteen (15) μg/mL of each compound was added to TSA broth and inoculated with S. Enteritidis.

The test system of test [2] is S. Enteritidis. The experiment in a line: Minimum inhibitory concentrations (MIC25, MIC50) of antibiotics, broth inoculation method. It counts as cell-based. Conditions: Salmonella enterica, 37° C., 16-18 h, inoculum 1×10^8 cells/mL. The procedure:
Nalidixic acid resistant strain of S. Enteritidis was provided by Laboratory for Foodborne Zoonoses, Public Health Agency of Canada, Guelph, Ontario. Half strength tryptic soy agar (TSA) medium (Difco) supplemented with nalidixic acid at a concentration of 32 μg/mL was used for bacterial growth. Tetracycline and Streptomycin were obtained from Sigma Aldrich (Oakville, Ontario, Canada). Stock solutions of antibiotics and seaweed extract were prepared and stored at −20° C. Other chemicals and media were purchased from Difco Laboratories, Baltimore, Md., USA. Red seaweeds (Chondrus crispus, and Sarcodiotheca gaudichaudii) were provided by Acadian Seaplants Limited, Nova Scotia, Canada.
The susceptibility of S. Enteritidis to tetracycline and streptomycin was tested by broth inoculation method. The testing of MICs (MIC25 and MIC50) was performed in triplicates with an inoculum of 1×10^8 cells/mL. […] MATLAB R2010a (curve fitting tool) was used to determine minimum inhibitory concentrations (MIC) of the antibiotics.

The test system of test [3] is S. Enteritidis. The experiment in a line: Combined effect of seaweed extract and antibiotics, liquid culture inhibition test (CFU). It counts as cell-based, Salmonella Enteritidis. The procedure:
Seaweed water extracts (SWE) were prepared by grinding sun dried seaweeds to fine powder using a coffee grinder, and adding 5 grams of algal powder to 20 mL distilled water (DW). The resulting slurry was incubated at 50° C. for 3 hours under shaking condition at 140 rpm using an orbital shaker (New Brunswick Scientific, Enfield, Conn., US). The slurry was then centrifuged at 10,000 g for 15 min. The supernatant was recovered and the residual pellet was re-extracted three times using the same procedure. The resulting supernatants were pooled and freeze dried (Thermo Fisher Scientific Inc., US). Dilutions of SWE were prepared by dissolving 0.2, 0.4, 0.8, 1 and 2 g of soluble freeze dried extract in 1 mL distilled water. These dilutions were used as working concentration in all the experiments. The combined effect of the C. crispus (CC) extract or the S. gaudichaudii (SG) extract, with tetracycline or streptomycin (at MIC25 or MIC50), was evaluated in vitro by liquid culture inhibition test. To 10 mL of tryptic soy broth, seaweed extract (SWE) and 100 μL Salmonella Enteritidis (OD600=0.1, 1×10^8 cells/mL) were added. The final concentrations of seaweed extracts in 10 mL with tryptic soy broth were 200, 400, or 800 μg/mL. Culture tubes were incubated at 37° C. for 24 hrs. The growth of S. Enteritidis was determined by plating the serially diluted culture on TSA plates to enumerate the colony forming units (CFU).

Take `OCC(CO)O[C@H]1O[C@H](CO)[C@H](O)[C@H](O)[C@H]1O` [Floridoside, 2-O-α-D-galactopyranosylglycerol]: the “colony count of S. Enteritidis, log CFU” value with S. Enteritidis [1] is 6.21 log CFU.
For the compound `[H]/N=C(/N)N[C@H]1[C@H](O)[C@@H](O)[C@H](O[C@@H]2O[C@@H](C)[C@](O)(C=O)[C@H]2O[C@@H]2O[C@@H](CO)[C@H](O)[C@@H](O)[C@@H]2NC)[C@@H](N/C(N)=N\[H])[C@@H]1O` [Streptomycin], in the test with S. Enteritidis [2], 1 mg/L (≈ 1.72 µM) was the least that counted as inhibitory (MIC) and the MIC50 (as a rule, the lowest concentration that inhibits either 50% of growth or 50% of the strains tested, depending on the study) worked out at 1.63 mg/L (≈ 2.8 µM).
For `NC(=O)NCCC[C@H](N)C(=O)O` [citrulline], the “CFU of S. Enteritidis compared to control” value in the test with S. Enteritidis [1] was “no statistically significant difference”.
`O=S(=O)(O)CCO` [isethionic acid, Isethionic acid]: the “colony count of S. Enteritidis, log CFU” value in the test with S. Enteritidis [1] is reported as 6.33 log CFU.
For `NCCS(=O)(=O)O` [taurine], in the test with S. Enteritidis [1], the “CFU of S. Enteritidis compared to control” value was “no statistically significant difference”.
With `CN(C)[C@@H]1C(O)=C(C(N)=O)C(=O)[C@@]2(O)C(O)=C3C(=O)c4c(O)cccc4[C@@](C)(O)[C@H]3C[C@@H]12` [tetracycline], the “growth of S. Enteritidis, log CFU” value in the test with S. Enteritidis [3] (MIC controls (tetracycline without SG extract)) is on record as 5.5 log CFU; with S. Enteritidis [3] (tetracycline alone at MIC25, 24 hrs) it was 6.1 log CFU; with S. Enteritidis [3] (tetracycline alone at MIC50, 24 hrs) it was 5.5 log CFU. Moreover, the MIC – broadly, the smallest concentration in the dilution series that meets the test's criterion for growth inhibition – against S. Enteritidis [2] is at most 7.9 mg/L. The MIC50 in the test with S. Enteritidis [2] is at most 4 mg/L.

For the origin of these results see patent US10772902B2, “Use of floridoside or isethionic acid to potentiate antimicrobial activity of antibiotics” (OCELAND BIOLOGICALS LIMITED, priority 2016, dated 2020).
